A short description of assay [1]: inhibitors of intracellular T. cruzi replication, confirmation, NIH3T3 host cells, beta-gal luminescence (AID 2044).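 Further: intracellular parasites grown in NIH/3T3 mouse fibroblasts as host cells; luminescent beta-galactosidase reporter signal from transgenic T. cruzi replicating inside host cells; inhibitors lower the luminescence signal.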 Type of assay: functional, cell-based.
A short description of assay [2]: cytotoxicity toward NIH3T3 fibroblasts, dose response, counter-screen, cell-based, ATP luminescence, mouse fibroblasts (AID 2010).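 Further: cells exposed to compound for about 90 hours before reading.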 Type of assay: functional.
Assay [3] has as its target T1, Cytochrome P450 1A2 (Homo sapiens, UniProt P05177).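 Further: PubChem cytochrome P450 panel assay, CYP1A2 panel member.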
T1 sequence (P05177 whole entry): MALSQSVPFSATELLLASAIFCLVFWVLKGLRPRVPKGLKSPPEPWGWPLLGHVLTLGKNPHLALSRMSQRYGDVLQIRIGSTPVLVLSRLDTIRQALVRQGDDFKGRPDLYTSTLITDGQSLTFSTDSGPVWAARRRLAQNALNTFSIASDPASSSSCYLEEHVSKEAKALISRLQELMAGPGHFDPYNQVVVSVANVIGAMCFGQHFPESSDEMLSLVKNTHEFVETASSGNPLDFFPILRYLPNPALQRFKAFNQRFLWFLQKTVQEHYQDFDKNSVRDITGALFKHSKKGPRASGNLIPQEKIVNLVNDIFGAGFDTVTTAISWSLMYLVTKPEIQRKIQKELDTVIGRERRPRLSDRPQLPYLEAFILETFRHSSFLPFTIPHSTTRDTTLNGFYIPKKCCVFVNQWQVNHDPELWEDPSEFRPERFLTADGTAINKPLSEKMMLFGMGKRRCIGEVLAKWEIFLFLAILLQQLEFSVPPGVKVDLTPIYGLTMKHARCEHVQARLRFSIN

Assay [4] deals with T2, Replicative DNA helicase DnaB (Mycobacterium tuberculosis, UniProt P9WMR3).
T2 sequence (P9WMR3 whole entry): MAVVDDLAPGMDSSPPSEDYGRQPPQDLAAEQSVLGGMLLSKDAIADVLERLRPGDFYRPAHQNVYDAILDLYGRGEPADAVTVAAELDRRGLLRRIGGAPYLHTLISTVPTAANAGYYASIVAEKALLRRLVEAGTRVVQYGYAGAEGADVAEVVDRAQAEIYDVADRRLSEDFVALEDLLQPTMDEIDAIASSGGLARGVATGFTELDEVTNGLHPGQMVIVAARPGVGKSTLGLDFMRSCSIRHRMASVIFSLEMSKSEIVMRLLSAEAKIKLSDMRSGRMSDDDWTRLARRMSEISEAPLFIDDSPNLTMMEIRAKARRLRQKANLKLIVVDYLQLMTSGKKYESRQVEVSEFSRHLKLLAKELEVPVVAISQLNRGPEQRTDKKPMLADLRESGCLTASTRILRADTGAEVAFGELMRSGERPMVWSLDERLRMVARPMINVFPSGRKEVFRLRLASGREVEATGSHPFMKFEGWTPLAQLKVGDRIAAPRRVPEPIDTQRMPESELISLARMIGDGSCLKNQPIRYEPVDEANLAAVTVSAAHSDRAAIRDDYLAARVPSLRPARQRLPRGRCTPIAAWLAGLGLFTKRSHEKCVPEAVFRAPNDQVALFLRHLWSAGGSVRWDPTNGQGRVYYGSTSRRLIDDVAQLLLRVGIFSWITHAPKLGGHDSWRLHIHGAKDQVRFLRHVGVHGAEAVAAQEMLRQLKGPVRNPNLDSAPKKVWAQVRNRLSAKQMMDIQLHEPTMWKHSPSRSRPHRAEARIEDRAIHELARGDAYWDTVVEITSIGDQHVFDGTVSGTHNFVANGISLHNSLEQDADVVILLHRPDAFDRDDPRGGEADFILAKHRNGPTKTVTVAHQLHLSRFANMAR
Put plainly: DnaB intein splicing inhibitors, dose response, biochemical, cell-free fluorescence (AID 449749). Type of assay: functional.

Assay [5] has as its target T3, Protein RecA (Mycobacterium tuberculosis, UniProt P9WHJ3).
T3 sequence (P9WHJ3 whole entry): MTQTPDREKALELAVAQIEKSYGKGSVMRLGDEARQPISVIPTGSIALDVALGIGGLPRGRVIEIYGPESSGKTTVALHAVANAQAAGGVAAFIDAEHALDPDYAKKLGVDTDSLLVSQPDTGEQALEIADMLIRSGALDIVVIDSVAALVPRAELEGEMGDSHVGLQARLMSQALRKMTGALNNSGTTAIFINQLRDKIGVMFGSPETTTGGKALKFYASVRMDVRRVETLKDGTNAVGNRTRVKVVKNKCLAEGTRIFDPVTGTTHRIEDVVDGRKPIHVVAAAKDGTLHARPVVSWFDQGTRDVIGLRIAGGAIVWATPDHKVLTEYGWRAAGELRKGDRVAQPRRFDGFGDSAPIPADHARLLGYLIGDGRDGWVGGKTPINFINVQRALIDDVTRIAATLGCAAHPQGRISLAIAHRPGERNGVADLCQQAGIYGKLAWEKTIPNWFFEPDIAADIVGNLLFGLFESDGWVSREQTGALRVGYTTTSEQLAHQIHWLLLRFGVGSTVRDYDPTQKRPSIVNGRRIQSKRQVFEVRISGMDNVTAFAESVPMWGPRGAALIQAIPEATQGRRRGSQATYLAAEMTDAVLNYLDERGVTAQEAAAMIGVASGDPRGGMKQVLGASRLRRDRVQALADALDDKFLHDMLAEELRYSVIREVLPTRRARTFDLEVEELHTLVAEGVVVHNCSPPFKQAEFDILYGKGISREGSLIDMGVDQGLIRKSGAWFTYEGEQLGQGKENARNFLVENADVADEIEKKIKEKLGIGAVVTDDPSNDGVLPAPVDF
Put plainly: Fluorescence Cell-Free Homogeneous Dose Retest to Identify Inhibitors of RecA-Intein Splicing Activity. [Related pubchem assays (depositor defined):AID2097, AID2223, AID489010, AID492950]. In kind it is functional.

The test system of assay [6] is Streptococcus sp. 'group A'. Put plainly: growth inhibition of control SK(-) GAS strain, dose response, counter-screen for streptokinase expression inhibitor project, luminescence, kanamycin, BacTiterGlo, confirmation (AID 1900). In kind it is functional, organism-based.
Assay [7] has as its system Streptococcus. Put plainly: Group A Streptococcus viability loss, dose response, counter-screen for streptokinase expression inhibitor project, luminescence, BacTiterGlo (AID 1915).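 Further: potency for reduction of bacterial viability or growth.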 In kind it is functional, organism-based.

The source made the active and inactive calls. For most assays here, no stated cut-off is given here; in the data, actives have a measured EC50 and inactives only a lower limit.

Consider `Cc1ccc(NP(=O)(c2ccc(N(C)C)cc2NC(=O)c2cccs2)N2CCOCC2)cc1Cl` (centres undefined), for which the EC50 in assay [1] is 1.9 µM (active); in assay [2], > 30 µM (not active).
On the same counts, the results for `O=C(COC(=O)c1c2c(nc3ccccc13)/C(=C\c1cccs1)CCC2)Nc1ccccc1Cl` are 1.73 µM (active) and > 60 µM (not active).
Turning to `COc1ccc(-n2c(=O)c(-c3cn(C)c4ccccc34)nc3cnc(N4CCOCC4)nc32)cc1`, in assay [3], the AC50 was 31.6 µM (inconclusive).
As for `O=C(C1=C[C@H](c2ccc(Br)cc2)C[C@H](OCCCCO)O1)N1CCN(Cc2ccccc2)CC1`, the EC50 in assay [1] was 0.874 µM (active); in assay [2], > 60 µM (not active).
Regarding `C[C@@H](C(=O)NCc1ccccn1)[C@@H]1C[C@@]1(C)[C@@H](NC(=O)OCc1ccccc1)c1ccccc1`, the AC50 in assay [3] is 20 µM (inconclusive).
On the same count and under the same terms, the result for `O=S(=O)(c1ccccc1)N1CCC[C@@]2(CCN(c3cccc(-c4ccccc4)c3)C2)C1` reads 15.8 µM (inconclusive).
For `O=C(NC1CCCCCC1)c1cccnc1S`, the EC50 was 8.39 µM (active) in assay [1] and > 60 µM (inconclusive) in assay [2].
Regarding `Clc1ccc(N2CCCCCC2)nn1`, the AC50 in assay [3] was 15.8 µM (inconclusive).
In the case of `N#C/C(=C/c1ccncc1)c1nc2ccccc2s1`, the AC50 in assay [4] was > 120 µM (inactive). Moreover, the EC50 in assay [5] is 1.67 µM (active).
With `CCOC(=O)c1ccc(-n2ccnc2)c(NC(=O)c2cccc(Br)c2)c1`, the results for the EC50 in assay [1] and in assay [2] were 0.281 µM (active) and > 60 µM (not active), respectively.
On the same counts, the results for `Cc1nn(C)cc1CN1CCCC(C(=O)c2ccc(-c3ccccc3)cc2)C1` (centres undefined) are 0.123 µM (active) and > 60 µM (not active).
Regarding `Cc1sc(NC(=O)CSC2=NCCS2)nc1-c1ccccc1`, the AC50 in assay [4] was 12.7 µM (active). Further, in assay [5], the EC50 was 4.25 µM (active).
On to `COc1ccc(Cl)cc1N=C(S)NCCC(c1ccccc1)c1ccccc1`, for which the EC50 in assay [1] was 1.44 µM (active); in assay [2], > 60 µM (not active).
Take `N#CC1=C(N)C(C#N)(C#N)[C@H](c2c(F)cccc2F)[C@H]2CC3(CC=C12)OCCO3`: the AC50 in assay [4] is > 380 µM (inactive). Also, the EC50 in assay [5] is 22.2 µM (active).
In the case of `Cc1noc(C)c1-c1cncnc1Nc1ccccc1`, the AC50 in assay [3] is 25.1 µM (inconclusive).
`Cc1ccc(CNC(=O)CCC2CCCN(Cc3ccc4cccc(F)c4n3)C2)o1` (centres undefined): the values for the EC50 in assay [1] and in assay [2] were 0.791 µM (active) and > 60 µM (not active), respectively.
Consider `COC(=O)C1=NN(C(C)=O)C2(CC(=O)N(c3cc(C)cc(C)c3)C2=O)C1` (centres undefined), for which the AC50 in assay [4] was > 380 µM (inactive). The EC50 in assay [5] is > 380 µM (inactive).
Take `N#CC1=C(N)Oc2[nH]nc(-c3cccs3)c2C1c1ccco1` (centres undefined): the AC50 in assay [4] is 8.22 µM (active). Further, in assay [5], the EC50 is 7.2 µM (active).
Regarding `Cc1nc(-c2ccccn2)nc(SCC(=O)c2ccccc2)c1Cl`, the EC50 in assay [6] was 3.92 µM (active); in assay [7] it was 11.4 µM (active).
Regarding `COc1ccc(C)cc1NC(=O)CN1CCN(S(=O)(=O)c2ccc(C(C)C)cc2)CC1`, the results for the EC50 in assay [1] and in assay [2] were 1.79 µM (active) and > 30 µM (not active), respectively.
In the case of `Cc1nc2ccccc2c2c1C(=O)N(Cc1cccnc1)C2=O`, the AC50 in assay [4] was 32.8 µM (active). Further, in assay [5], the EC50 is 1.02 µM (active).
With `CCCOc1ccc(C(=O)NNC(=S)NC(=O)c2cc(-c3ccccc3)nc3ccccc23)cc1`, in assay [3], the AC50 was 17.8 µM (inconclusive).
With `CS(=O)(=O)N1CCC(Oc2ccccc2C(=O)N2CCCCC2CO)CC1` (centres undefined), the AC50 in assay [4] is > 380 µM (inactive). In addition, the EC50 in assay [5] was > 380 µM (inactive).
`O=[N+]([O-])c1ccc(S(=O)(=O)N2CCN(c3ccnc4cc(Cl)ccc34)CC2)cc1`: the EC50 in assay [1] is 0.581 µM (active); in assay [2], > 60 µM (not active).
On the same counts, the results for `C=C(C)COc1ccc(-c2nc(N)nc(C(F)(F)F)c2-c2ccc(OC)cc2)c(O)c1` are 2 µM (active) and > 60 µM (not active).
Regarding `CC(C)c1ccccc1OCC(O)CN1CCN(S(=O)(=O)c2ccc([N+](=O)[O-])cc2)CC1` (centres undefined), the EC50 in assay [1] was 0.409 µM (active); in assay [2] it was > 60 µM (not active).
As for `COc1ccc(NC(=O)c2cccc(N3C(=O)C4C5C=CC(C5)C4C3=O)c2)cc1Cl` (centres undefined), the AC50 in assay [4] was > 380 µM (inactive). Moreover, the 50% effective concentration (EC50) in assay [5] is 18.5 µM (active).
In the case of `CC(C)(C)c1ccc(C(=O)Cn2cnnc2C#N)cc1`, the AC50 in assay [4] is 48.9 µM (active). Moreover, the EC50 in assay [5] was 20 µM (active).
Turning to `COc1ccc(C2C(C#N)=C(N)Oc3c2c(C)nn3-c2ccccc2)cc1Cn1nc(C)c([N+](=O)[O-])c1C` (centres undefined), the AC50 in assay [4] is 2.95 µM (active). Besides, the EC50 in assay [5] is 10.5 µM (active).
For the compound `COCc1n[nH]c2c1C(c1cccc(OC)c1)C(C#N)=C(N)O2` (centres undefined), the AC50 in assay [4] was 40 µM (active). For the same compound, the EC50 in assay [5] was 27 µM (active).
As for `Clc1ccccc1-c1ncc2ccccn12`, the EC50 in assay [1] was 2.45 µM (active); in assay [2], > 60 µM (not active).
As for `Cc1onc(-c2ccc(Cl)cc2Cl)c1-c1csc(N/N=C/c2ccccc2Cl)n1`, the EC50 in assay [1] was 2.08 µM (active); in assay [2] it was 13.9 µM (active).
Turning to `C/C(CC(=O)Nc1cc(C)ccn1)=N\NC(=O)c1ccc(C)cc1`, the AC50 in assay [4] is 24.4 µM (active). The EC50 in assay [5] was 8.13 µM (active).
For `CC(=O)/N=c1\sc2c3ccccc3ccc2n1C`, the concentration giving a half-maximal response (EC50) is 0.643 µM (active) in assay [1] and > 30 µM (not active) in assay [2].
For `c1ccc2sc(C3CCNCC3)nc2c1`, the EC50 in assay [1] was 2.58 µM (active); in assay [2], > 60 µM (not active).
As to `Cc1c(-c2ccccc2)oc2c(C(=O)OCCN3CCCCC3)cccc2c1=O` [FLAVOXATE], in assay [3], the AC50 is 6.31 µM (inconclusive).
As to `COc1c(N2CCNC(C)C2)c(F)cc2c(=O)c(C(=O)O)cn(C3CC3)c12` (centres undefined) [GATIFLOXACIN], the results for the EC50 in assay [6] and in assay [7] were 0.66 µM (active) and 1.09 µM (active), respectively.
On the same counts, the results for `CC(C)=CCc1cc([C@@H]2CC(=O)c3ccc(O)c(CC=C(C)C)c3O2)ccc1O` [GLABROL] are 6.4 µM (active) and 5.43 µM (active).

As usually defined, the EC50 is the concentration giving half of the maximal effect. For orientation: AC50 means the midpoint of the concentration-response curve, whichever way the signal moves.

Source of the values: ChEMBL document CHEMBL1201862, “PubChem BioAssay data set” (2004).
